{"source": "paper PMC9505538", "about": "“P-Glycoprotein (MDR1/ABCB1) Restricts Brain Accumulation of the Novel EGFR Inhibitor EAI045 and Oral Elacridar Coadministration Enhances Its Brain Accumulation and Oral Exposure” (Pharmaceuticals, 2022)", "key": {"[1]": {"assay": "24 h pharmacokinetic pilot experiment in WT, Cyp3a-/- and Cyp3aXAV mice", "type": "in vivo, mice (Mus musculus)", "protocol": "To determine whether EAI045 and CYP3A interact in vivo, we carried out a 24 h pharmacokinetic pilot experiment using oral EAI045 at 20 mg/kg in female WT, Cyp3a knockout (Cyp3a^-/-), and transgenic Cyp3aXAV mice (these are humanized Cyp3a^-/- mice that express the human CYP3A4 in liver and small intestine). The plasma exposure and tissue distribution of EAI045 and PIA were measured. The tmax in all strains was around 5–30 min. […] In contrast, relative to Cyp3a^-/- or WT mice, the AUC0–30min and Cmax were not changed in Cyp3aXAV mice (Supplemental Figure S8A–C). Similar results were obtained for PIA (Supplemental Figure S8D–F). While not plotted separately, the PIA/EAI045 AUC ratios were also hardly changed between the three mouse strains.\nAll samples were stored at −30 °C until analysis.\nDifferences were considered statistically significant when p < 0.05. Data are presented as mean ± SD."}, "murine Abcg2": {"target": "T1, murine Abcg2 (Mus musculus, UniProt Q7TMS5)", "T1 construct": "expressed in transfected cells; host or cells: MDCK-II cells, stably transduced, generated in the authors' institute", "T1 sequence (Q7TMS5 1-657)": "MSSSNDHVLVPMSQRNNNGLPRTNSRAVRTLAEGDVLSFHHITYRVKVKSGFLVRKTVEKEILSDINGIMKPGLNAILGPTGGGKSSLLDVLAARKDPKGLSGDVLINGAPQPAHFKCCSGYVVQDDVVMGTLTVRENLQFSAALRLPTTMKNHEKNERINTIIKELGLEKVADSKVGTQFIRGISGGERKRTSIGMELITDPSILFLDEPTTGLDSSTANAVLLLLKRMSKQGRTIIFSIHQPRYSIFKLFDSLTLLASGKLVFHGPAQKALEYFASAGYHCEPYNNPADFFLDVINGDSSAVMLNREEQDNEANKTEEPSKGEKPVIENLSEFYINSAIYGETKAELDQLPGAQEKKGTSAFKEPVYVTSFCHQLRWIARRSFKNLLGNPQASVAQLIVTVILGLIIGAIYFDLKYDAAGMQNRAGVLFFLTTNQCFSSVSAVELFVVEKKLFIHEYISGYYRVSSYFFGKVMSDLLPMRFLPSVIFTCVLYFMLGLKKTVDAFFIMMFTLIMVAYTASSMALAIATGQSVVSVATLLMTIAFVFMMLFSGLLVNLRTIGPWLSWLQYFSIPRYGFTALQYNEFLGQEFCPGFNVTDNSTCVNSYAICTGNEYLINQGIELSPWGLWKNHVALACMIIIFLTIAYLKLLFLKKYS", "assay": "Transepithelial transport of EAI045, MDCK-II cells transduced with murine Abcg2", "type": "in vitro ADME", "conditions": "for efflux ratio r (relative transport ratio): EAI045 5 μM", "protocol": "Transport of EAI045 (5 μM) across epithelia was tested using cell layers of Madin–Darby Canine Kidney (MDCK-II) cells and derived clones expressing hABCB1, hABCG2, or mAbcg2 cDNA. […] In cells overexpressing hABCB1, there was clear transport of EAI045 in the apical direction (r = 5.5, Figure 1C). […] To evaluate the interaction between hABCG2 and mAbcg2 and EAI045, zosuquidar (5 μM) was added to inhibit any endogenous canine ABCB1. In cells overexpressing hABCG2, the BA transport of EAI045 was somewhat increased relative to the AB transport, resulting in an efflux ratio of 1.4 (Figure 1E).\nFigure 1 In vitro transepithelial transport of EAI045 (5 μM) using MCDK-II parental cells (A,B) or transduced with human ABCB1 (C,D), human ABCG2 (E,F), or murine Abcg2 (G,H) cDNA. At t = 0 EAI045 was added in the donor compartment (either apical or basolateral). At 1, 2, and 4 h EAI045 was quantified in the acceptor compartment and the cumulative total transported amount per well was plotted (n = 3). Zosuquidar (5 μM) was added to inhibit the human and/or the endogenous ABCB1, while Ko143 (5 μM) was added to inhibit the human or murine ABCG2. r, relative transport ratio. […] Points, mean; bars, SD. TEXT PRINTED IN THE PICTURE: (A) no label printed: Parental: r = 1.7 | (B) no label printed: Parental + Zos.: r = 1.1 | (C) no label printed: hABCB1: r = 5.5 | (D) no label printed: hABCB1 + Zos.: r = 1.3 | (E) no label printed: hABCG2 + Zos.: r = 1.4 | (F) no label printed: hABCG2 + Zos. + Ko143: r = 1.1 | (G) no label printed: mAbcg2 + Zos.: r = 1.8 | (H) no label printed: mAbcg2 + Zos. + Ko143: r = 1.4\nMadin–Darby Canine Kidney (MDCK-II) cells (ECACC 00062107) stably transduced with human (h) ABCB1, hABCG2, or mouse (m) Abcg2 cDNA were generated in our institute between 1998 and 2005. […] In short, cells were allowed to grow an intact monolayer in 3 days, which was monitored with transepithelial electrical resistance (TEER) measurements, both before and after the transport phase. […] Proper functionality of these cell lines was monitored by continual testing with a variety of drug substrates."}}, "data": [{"smiles": "O=C(Nc1nccs1)C(c1cc(F)ccc1O)N1Cc2ccccc2C1=O", "note": "(stereo not drawn) [EAI045]", "values": [{"measurement": "plasma exposure of EAI045 over 30 min (AUC0–30min), fold lower", "setting": "[1]; Cyp3a-/- mice than WT mice, 20 mg/kg oral", "value": 1.6, "unit": "fold"}, {"measurement": "AUC0–30min and Cmax", "setting": "[1]; Cyp3aXAV mice relative to Cyp3a-/- or WT mice, 20 mg/kg oral", "value": "not changed"}, {"measurement": "tmax", "setting": "[1]; female WT, Cyp3a-/- and Cyp3aXAV mice (all strains), EAI045 20 mg/kg oral", "value": "5 to 30", "unit": "min"}, {"measurement": "efflux ratio r (relative transport ratio)", "setting": "murine Abcg2; mAbcg2 + zosuquidar 5 μM", "value": 1.8}, {"measurement": "efflux ratio r (relative transport ratio)", "setting": "murine Abcg2; mAbcg2 + zosuquidar 5 μM + Ko143 5 μM", "value": 1.4}, {"measurement": "transport by mouse Abcg2", "setting": "murine Abcg2; in vitro", "value": "at best slightly transported"}]}]}
